Measurements reported in patent US12419884B2, “Compositions and methods for treating iron overload” (BRIGHAM YOUNG UNIVERSITY, priority 2018, dated 2025).

What was measured:
[1] = tested on: hepcidin secretion from HepG2 cells; assay: hepcidin secretion from IL-6 inflamed HepG2 cells, ELISA; type: cell-based; conditions: IL-6 (10 ng/mL), inhibitors at 10 ng/mL, FIG. 8
Protocol: HepG2 cells were cultured with controls not treated with additional treatments. The remaining cells were all treated to induce inflammation IL-6 (10 ng/mL). Inhibitors were added at 10 ng/mL to block furin and prevent the cleavage of prohepcidin to hepcidin. Hepcidin secreted into the growth media was measured by ELISA.

furin = furin (Homo sapiens, UniProt P09958); assay: furin fluorescence assay / enzyme assays with purified furin; conditions: in vitro fluorescence assay; 55, 110 and 220 micromolar doses; FIG. 7
furin, sequence (P09958 108-794, species assumed): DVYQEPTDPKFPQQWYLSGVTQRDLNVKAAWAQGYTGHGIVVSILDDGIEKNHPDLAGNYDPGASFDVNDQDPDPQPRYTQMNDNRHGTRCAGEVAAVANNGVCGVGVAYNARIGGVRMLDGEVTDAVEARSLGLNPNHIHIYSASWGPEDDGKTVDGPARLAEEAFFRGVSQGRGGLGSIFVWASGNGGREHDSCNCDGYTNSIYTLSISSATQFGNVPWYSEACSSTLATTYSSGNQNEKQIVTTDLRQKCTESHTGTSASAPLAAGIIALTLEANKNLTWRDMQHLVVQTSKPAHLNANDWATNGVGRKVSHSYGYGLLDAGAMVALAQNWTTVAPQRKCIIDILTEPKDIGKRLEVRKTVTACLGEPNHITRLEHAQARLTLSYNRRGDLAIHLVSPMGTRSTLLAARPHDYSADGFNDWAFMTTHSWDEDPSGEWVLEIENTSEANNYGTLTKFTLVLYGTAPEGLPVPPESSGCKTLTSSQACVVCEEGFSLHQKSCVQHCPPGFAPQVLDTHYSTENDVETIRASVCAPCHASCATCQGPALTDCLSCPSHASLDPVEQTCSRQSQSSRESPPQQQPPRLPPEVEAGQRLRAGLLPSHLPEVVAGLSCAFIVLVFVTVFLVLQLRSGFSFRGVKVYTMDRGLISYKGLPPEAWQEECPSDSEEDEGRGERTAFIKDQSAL

[2] = tested on: hepcidin secretion from HepG2 cells; assay: hepcidin secretion from IL-6 and BMP-9 inflamed HepG2 cells, Mass Spectrometry; type: cell-based; conditions: IL-6 and BMP-9 (10 ng/mL each), inhibitors at 10 micromolar, FIG. 9

| furin inhibition (furin) | SMILES | inhibition of hepcidin secretion [1] | inhibition of hepcidin secretion [2] |
| --- | --- | --- | --- |
|  | COC(=O)N[C@H](C(=O)N[C@@H](Cc1ccccc1)[C@@H](O)CN(Cc1ccc(-c2ccccn2)cc1)NC(=O)[C@@H](NC(=O)OC)C(C)(C)C)C(C)(C)C [Atazanvir, methyl N-[(1S)-1-{[(2S,3S)-3-hydroxy-4-[(2S)-2-[(methoxycarbonyl)amino]-3,3-dimethyl-N′-{[4-(pyridin-2-yl)phenyl]methyl}butanehydrazido]-1-phenylbutan-2-yl]carbamoyl}-2,2-dimethylpropyl]carbamate] | showed inhibition of hepcidin secretion |  |
| most potent furin inhibition | CC(C)CN(C[C@@H](O)[C@H](Cc1ccccc1)NC(=O)O[C@H]1CO[C@H]2OCC[C@H]21)S(=O)(=O)c1ccc(N)cc1 [Darunavir, [(1R,5S,6R)-2,8-dioxabicyclo[3.3.0]oct-6-yl] N-[(2S,3R)-4-[(4-aminophenyl)sulfonyl-(2-methylpropyl)amino]-3-hydroxy-1-phenyl-butan-2-yl]carbamate] |  |  |
|  | Cc1cccc(C)c1OCC(=O)N[C@@H](Cc1ccccc1)[C@@H](O)C[C@H](Cc1ccccc1)NC(=O)[C@H](C(C)C)N1CCCNC1=O [Lopinavir, (2S)—N-[(2S,4S,5S)-5-[2-(2,6-dimethylphenoxy)acetamido]-4-hydroxy-1,6-diphenylhexan-2-yl]-3-methyl-2-(2-oxo-1,3-diazinan-1-yl)butanamide] | showed inhibition of hepcidin secretion |  |
| most potent furin inhibition | Cc1c(O)cccc1C(=O)N[C@@H](CSc1ccccc1)[C@H](O)CN1C[C@H]2CCCC[C@H]2C[C@H]1C(=O)NC(C)(C)C [Nelfinavir, (3S,4aS,8aS)—N-tert-butyl-2-[(2R,3R)-2-hydroxy-3-[(3-hydroxy-2-methylphenyl)formamido]-4-(phenylsulfanyl)butyl]-decahydroisoquinoline-3-carboxamide] |  |  |
| most potent furin inhibition | CC(C)c1nc(CN(C)C(=O)N[C@H](C(=O)N[C@@H](Cc2ccccc2)C[C@H](O)[C@H](Cc2ccccc2)NC(=O)OCc2cncs2)C(C)C)cs1 [Ritonavir] |  | small inhibitory effect |
|  | CC(C)CN(C[C@@H](OP(=O)(O)O)[C@H](Cc1ccccc1)NC(=O)O[C@H]1CCOC1)S(=O)(=O)c1ccc(N)cc1 [fosamprenavir] | showed inhibition of hepcidin secretion |  |
|  | CC(C)(C)NC(=O)[C@@H]1CN(Cc2cccnc2)CCN1C[C@@H](O)C[C@@H](Cc1ccccc1)C(=O)N[C@H]1c2ccccc2C[C@H]1O [indinavir, (2S)-1-[(2S,4R)-4-benzyl-2-hydroxy-4-{[(1S,2R)-2-hydroxy-2,3-dihydro-1Hinden-1-yl]carbamoyl}butyl]-N-tert-butyl-4-(pyridin-3-ylmethyl)piperazine-2-carboxamide] |  | more potent response |

| SMILES | furin inhibition (furin) | inhibition of hepcidin secretion [1] | inhibition of hepcidin secretion [2] |
| --- | --- | --- | --- |
| CC(C)(C)NC(=O)[C@@H]1CC2CCCCC2CN1C[C@@H](O)[C@H](Cc1ccccc1)NC(=O)[C@H](CC(N)=O)NC(=O)c1ccc2ccccc2n1 (stereo partly drawn) [Saquinavir, (2S)—N-[(2S,3R)-4-[(3S)-3-(tert-butylcarbamoyl)-decahydroisoquinolin-2-yl]-3-hydroxy-1-phenylbutan-2-yl]-2-(quinolin-2-yl-formamido)butanediamide] | very weak dose dependent inhibition of furin |  |  |
